Compound: Cc1ccc(C(=O)Nc2ccc(CN3CCN(C)CC3)c(C(F)(F)F)c2)cc1C#Cc1cnc2cccnn12 [Ponatinib] + CC1(C)CCC(c2ccc(Cl)cc2)=C(CN2CCN(c3ccc(C(=O)NS(=O)(=O)c4ccc(N[C@H](CCN5CCOCC5)CSc5ccccc5)c(S(=O)(=O)C(F)(F)F)c4)cc3)CC2)C1 [Navitoclax] (partner 0.5 µM)
Test: relative viability (nuclei count vs DMSO), 5 days (fraction); higher = more cells survive
Conditions: first compound 0.002 µM
Outline: (§1)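 Relative viability was taken as the ratio of nuclei in treated wells to nuclei in vehicle wells. Lung cancer cell lines in 1536-well plates received compounds by pin tool one day after seeding, either one drug alone or a fixed anchor-drug dose plus five library-drug doses (not always all listed) in √10 steps. Nuclei were counted on 4× images after 5 days of treatment, and values are medians of duplicate plates.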

Cell Line	relative viability
NCI-H2170	0.643
NCI-H1975	1.18
SK-LU-1	0.702
SK-MES-1	1.25
RERF-LC-KJ	1.09

Same assay, conditions: first compound 0.006325 µM

Cell Line	relative viability
NCI-H2170	0.661
NCI-H1975	1.01
SK-LU-1	0.792
SK-MES-1	1.12
RERF-LC-KJ	0.968

Same assay, conditions: first compound 0.06325 µM

Cell Line	relative viability
NCI-H2170	0.684
NCI-H1975	1.2
SK-LU-1	0.902
SK-MES-1	1.3
RERF-LC-KJ	1.07

Same assay, conditions: first compound 0.2 µM

Cell Line	relative viability
NCI-H2170	0.765
NCI-H1975	0.915
SK-LU-1	0.453
SK-MES-1	1.19
RERF-LC-KJ	1.06

Compound: Cc1ccc(Nc2nccc(N(C)c3ccc4c(C)n(C)nc4c3)n2)cc1S(N)(=O)=O [Pazopanib] + CC1(C)CCC(c2ccc(Cl)cc2)=C(CN2CCN(c3ccc(C(=O)NS(=O)(=O)c4ccc(N[C@H](CCN5CCOCC5)CSc5ccccc5)c(S(=O)(=O)C(F)(F)F)c4)cc3)CC2)C1 [Navitoclax] (partner 0.5 µM)
Test: as above
Conditions: first compound 0.01 µM
Outline: as §1

Cell Line	relative viability
NCI-H2170	0.519
NCI-H1975	1
SK-LU-1	0.828
SK-MES-1	1.29
RERF-LC-KJ	0.906

Same assay, conditions: first compound 0.03162 µM

Cell Line	relative viability
NCI-H2170	0.586
NCI-H1975	1.2
SK-LU-1	0.898
SK-MES-1	1.32
RERF-LC-KJ	1.01

Same assay, conditions: first compound 0.1 µM

Cell Line	relative viability
NCI-H2170	0.752
NCI-H1975	1.17
SK-LU-1	0.994
SK-MES-1	1.42
RERF-LC-KJ	1.06

Same assay, conditions: first compound 0.3162 µM

Cell Line	relative viability
NCI-H2170	0.542
NCI-H1975	1.12
SK-LU-1	0.964
SK-MES-1	1.3
RERF-LC-KJ	0.879

Same assay, conditions: first compound 1 µM

Cell Line	relative viability
NCI-H2170	0.631
NCI-H1975	1.02
SK-LU-1	0.749
SK-MES-1	1.15
RERF-LC-KJ	1.04

Compound: Cc1ccc(Nc2nccc(N(C)c3ccc4c(C)n(C)nc4c3)n2)cc1S(N)(=O)=O [Pazopanib] + COc1cc2c(Oc3ccc(NC(=O)C4(C(=O)Nc5ccc(F)cc5)CC4)cc3F)ccnc2cc1OCCCN1CCOCC1 [Foretinib] (partner 0.25 µM)
Test: as above
Conditions: first compound 0.01 µM
Outline: as §1

Cell Line	relative viability
NCI-H2170	1.06
NCI-H1975	0.911
SK-LU-1	0.872
SK-MES-1	0.95
RERF-LC-KJ	0.844

Same assay, conditions: first compound 0.03162 µM

Cell Line	relative viability
NCI-H2170	1.08
NCI-H1975	0.945
SK-LU-1	0.988
SK-MES-1	0.985
RERF-LC-KJ	0.859

Same assay, conditions: first compound 0.1 µM

Cell Line	relative viability
NCI-H2170	1.01
NCI-H1975	0.997
SK-LU-1	0.884
SK-MES-1	0.951
RERF-LC-KJ	0.857

Same assay, conditions: first compound 0.3162 µM

Cell Line	relative viability
NCI-H2170	1.02
NCI-H1975	1.03
SK-LU-1	0.851
SK-MES-1	0.951
RERF-LC-KJ	0.86

Same assay, conditions: first compound 1 µM

Cell Line	relative viability
NCI-H2170	1.07
NCI-H1975	1.03
SK-LU-1	0.809
SK-MES-1	1.1
RERF-LC-KJ	0.792

Compound: Cc1ccc(Nc2nccc(N(C)c3ccc4c(C)n(C)nc4c3)n2)cc1S(N)(=O)=O [Pazopanib] + Nc1nc2[nH]cc(CCc3ccc(C(=O)N[C@@H](CCC(=O)O)C(=O)O)cc3)c2c(=O)[nH]1 [Pemetrexed] (partner 0.2 µM)
Test: as above
Conditions: first compound 0.01 µM
Outline: as §1

Cell Line	relative viability
NCI-H2170	0.258
NCI-H1975	0.294
SK-LU-1	0.926
SK-MES-1	0.91
RERF-LC-KJ	0.498

Same assay, conditions: first compound 0.03162 µM

Cell Line	relative viability
NCI-H2170	0.307
NCI-H1975	0.296
SK-LU-1	1.01
SK-MES-1	0.981
RERF-LC-KJ	0.517

Same assay, conditions: first compound 0.1 µM

Cell Line	relative viability
NCI-H2170	0.264
NCI-H1975	0.285
SK-LU-1	1.05
SK-MES-1	0.961
RERF-LC-KJ	0.443

Same assay, conditions: first compound 0.3162 µM

Cell Line	relative viability
NCI-H2170	0.277
NCI-H1975	0.299
SK-LU-1	0.994
SK-MES-1	0.924
RERF-LC-KJ	0.432

Same assay, conditions: first compound 1 µM

Cell Line	relative viability
NCI-H2170	0.258
NCI-H1975	0.258
SK-LU-1	0.911
SK-MES-1	0.985
RERF-LC-KJ	0.541

From the supplement of paper PMC10307832
